Experimental findings from ChEMBL document CHEMBL1201862, “PubChem BioAssay data set” (2004) are described below.

Some test systems named below: SN12C; Malme-3M; NCI-H460; OVCAR-4; SF-295; MDA-MB-435; COLO 205; NCI-H522; MDA-MB-231; NCI-H23; HCT-116; HCT-15; CCRF-CEM; Hs-578T; HOP-92; UO-31; T47D; IGROV-1; UACC-257.
What all share (experiment): inhibition of tumour cell growth, NCI panel, 48 h

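96-well plates; 48 h exposure; 5 concentrations. Endpoints by linear interpolation between flanking doses. Not reached: highest tested concentration assigned. The concentration for 50% growth inhibition is given as GI50.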 Calls of active or inactive are those of the source. No stated cut-off is given here; in the data, active = GI50 up to about 1.1 µM and inactive = higher.

As for `O=S(=O)(Nc1nccs1)c1ccc([As](=O)(O)O)cc1`, the GI50 in the assay with SN12C, in the assay on Malme-3M, in the assay on NCI-H460, with OVCAR-4, with SF-295 and with MDA-MB-435 was > 100 µM (inactive) each time. The GI50 in the assay with COLO 205 was > 100 µM (inactive); in the assay on NCI-H522 it was > 100 µM (inactive); in the assay with MDA-MB-231 it was > 100 µM (inactive); in the assay with NCI-H23 it was > 100 µM (inactive); in the assay with HCT-116, > 100 µM (inactive); in the assay on HCT-15, greater than 100 µM. In addition, the GI50 in the assay with CCRF-CEM, in the assay with Hs-578T, in the assay with HOP-92, with UO-31, with T47D and in the assay on IGROV-1 was > 100 µM (inactive) throughout.

Turning to `C=CCn1c(=O)c(C)cn(/C(=C/C(=O)OCC)C(=O)OCC)c1=O`, the GI50 in the assay on SN12C is 14.2 µM (inactive); in the assay with Malme-3M, 13.8 µM (inactive); in the assay on NCI-H460, 25.4 µM (inactive); with OVCAR-4 it was 18.3 µM (inactive); in the assay with SF-295, > 84.1 µM (inactive); in the assay with MDA-MB-435, 13.5 µM (inactive). The GI50 with COLO 205 is 4.55 µM (inactive); with NCI-H522, 1.69 µM (inactive); with MDA-MB-231, 15.5 µM (inactive); in the assay with NCI-H23, 16.1 µM (inactive); in the assay with HCT-116, 9.62 µM (inactive); in the assay on HCT-15, 2.97 µM. The GI50 with UACC-257 is 20.5 µM (inactive); with CCRF-CEM, 1.42 µM (inactive); in the assay on Hs-578T, 24.5 µM (inactive); with HOP-92 it was 3.52 µM (inactive); with UO-31, 15.7 µM (inactive); in the assay on T47D it was 11.9 µM (inactive). In the assay with IGROV-1, the GI50 was 16.4 µM (inactive).

With `O=C(O)C1(CC(CCCN2CCCCC2)c2ccccc2)CCCC1` (stereo not drawn), the GI50 in the assay with SN12C, in the assay on Malme-3M, in the assay on NCI-H460, with OVCAR-4, in the assay on SF-295 and with MDA-MB-435 was > 100 µM (inactive) throughout. Also, the GI50 with COLO 205 is > 100 µM (inactive); in the assay on NCI-H522 it was > 100 µM (inactive); in the assay on MDA-MB-231 it was > 100 µM (inactive); in the assay on NCI-H23, > 100 µM (inactive); in the assay with HCT-116, > 100 µM (inactive); in the assay on HCT-15, greater than 100 µM. In addition, the GI50 in the assay on CCRF-CEM, in the assay with Hs-578T, in the assay with HOP-92, in the assay with UO-31, with T47D and with IGROV-1 was > 100 µM (inactive) throughout.

For `C=C1C(=O)C2=C[C@H]1C[C@H](O)C(=O)[C@]1(C)CCCC(C)(C)[C@H]1C[C@H]2O`, the GI50 with SN12C was 1.77 µM (inactive); in the assay with Malme-3M, 0.83 µM (active); in the assay on NCI-H460 it was 2.88 µM (inactive); with OVCAR-4, 3.94 µM (inactive); in the assay on SF-295, 7.94 µM (inactive); in the assay with MDA-MB-435, 2.65 µM (inactive). The GI50 in the assay with COLO 205 was 0.638 µM (active); in the assay on NCI-H522, 0.0428 µM (active); with MDA-MB-231 it was 1.32 µM (inactive); with NCI-H23 it was 1.63 µM (inactive); in the assay with HCT-116 it was 1.63 µM (inactive); with HCT-15, 0.406 µM. Also, the GI50 in the assay with UACC-257 is 1.86 µM (inactive); in the assay with CCRF-CEM it was 0.0488 µM (active); in the assay with Hs-578T, 2.76 µM (inactive); in the assay with HOP-92, 1.49 µM (inactive); in the assay with UO-31, 2.06 µM (inactive); in the assay with T47D it was 1.11 µM (active). For the same compound, the GI50 with IGROV-1 was 3.6 µM (inactive).

As to `Cc1c(C)c2c(c(N)c1C#N)C(=O)N(OS(=O)(=O)c1ccccc1)C2=O`, the GI50 is 23.7 µM (inactive) in the assay on SN12C; 16.1 µM (inactive) in the assay on Malme-3M; 37.5 µM (inactive) in the assay with NCI-H460; 21.2 µM (inactive) in the assay on OVCAR-4; > 100 µM (inactive) in the assay with SF-295; 19 µM (inactive) in the assay on MDA-MB-435. The GI50 in the assay with COLO 205 was 21.8 µM (inactive); with NCI-H522 it was 17.1 µM (inactive); in the assay with MDA-MB-231 it was 52.8 µM (inactive); in the assay on HCT-116, 4.42 µM (inactive); in the assay with HCT-15, 20.9 µM; in the assay with UACC-257, 24.4 µM (inactive). Further, the GI50 in the assay with CCRF-CEM is 21.5 µM (inactive); with Hs-578T, 34.8 µM (inactive); in the assay on HOP-92, 17 µM (inactive); with UO-31 it was 33.7 µM (inactive); with T47D it was 2.55 µM (inactive); in the assay on IGROV-1, 18.5 µM (inactive).

For `CCOC(=O)c1cc2c3c(c(C(C)=O)c(O)c2[nH]1)N(CC(C)CC)CC3` (stereo not drawn), the GI50 in the assay with SN12C was > 100 µM (inactive); with Malme-3M it was 21.4 µM (inactive); in the assay with NCI-H460 it was > 100 µM (inactive); with OVCAR-4, 43.1 µM (inactive); with SF-295, 45 µM (inactive); in the assay with MDA-MB-435, 44.3 µM (inactive). The GI50 was > 100 µM (inactive) with COLO 205; 24.2 µM (inactive) with NCI-H522; 33 µM (inactive) in the assay on MDA-MB-231; 44.9 µM (inactive) in the assay with NCI-H23; 42.3 µM (inactive) in the assay with HCT-116; 70.3 µM with HCT-15. The GI50 is 68.7 µM (inactive) with UACC-257; 35.6 µM (inactive) in the assay with CCRF-CEM; 8.97 µM (inactive) with Hs-578T; 45.3 µM (inactive) in the assay on HOP-92; 83.4 µM (inactive) in the assay on UO-31; 21.9 µM (inactive) with T47D. Further, the GI50 in the assay with IGROV-1 was > 100 µM (inactive).

Regarding `O=C1c2ccccc2C(=O)c2sc(Nc3cc(Cl)ccc3Cl)nc21`, the GI50 in the assay on SN12C is 2.08 µM (inactive); in the assay on Malme-3M, 1.44 µM (inactive); with NCI-H460 it was 6.68 µM (inactive); in the assay on OVCAR-4, 4.16 µM (inactive); in the assay on SF-295 it was 4.03 µM (inactive); in the assay on MDA-MB-435, 2.01 µM (inactive). Moreover, the GI50 in the assay on COLO 205 was 16 µM (inactive); with NCI-H522, 2.95 µM (inactive); in the assay with MDA-MB-231 it was 1.87 µM (inactive); in the assay on NCI-H23 it was 4.72 µM (inactive); in the assay on HCT-116, 3.3 µM (inactive); with HCT-15, 2.94 µM. The GI50 was 2.51 µM (inactive) with UACC-257; 4.29 µM (inactive) in the assay on CCRF-CEM; 9.25 µM (inactive) in the assay with Hs-578T; 15.1 µM (inactive) in the assay on HOP-92; 6.03 µM (inactive) with UO-31; 3.99 µM (inactive) with T47D. For the same compound, in the assay on IGROV-1, the GI50 was 4.15 µM (inactive).

As to `CC(C)C(NC(=O)C(Cc1ccccc1)NC(=O)[C@H]1CCC[C@H]1NC(=O)C(N)Cc1ccc(O)cc1)C(N)=O` (stereo partly drawn), the GI50 in the assay on SN12C, in the assay on Malme-3M, in the assay with NCI-H460, in the assay with OVCAR-4, in the assay with SF-295 and in the assay on MDA-MB-435 was > 100 µM (inactive) throughout. Also, the GI50 in the assay with COLO 205 was > 100 µM (inactive); with NCI-H522 it was > 100 µM (inactive); in the assay with MDA-MB-231 it was > 100 µM (inactive); in the assay with NCI-H23, > 100 µM (inactive); with HCT-116, > 100 µM (inactive); with HCT-15, greater than 100 µM. The GI50 with UACC-257, in the assay with CCRF-CEM, with Hs-578T, with HOP-92, in the assay on UO-31 and with T47D was > 100 µM (inactive) each time. Besides, the GI50 in the assay on IGROV-1 is > 100 µM (inactive).

Turning to `COc1ccc(-c2c(C#N)c(=O)nc(SC)n2C2OCC(OC(C)=O)C(OC(C)=O)C2OC(C)=O)cc1` (stereo not drawn), the GI50 is > 100 µM (inactive) with SN12C; > 100 µM (inactive) with Malme-3M; 27.2 µM (inactive) in the assay on NCI-H460; > 100 µM (inactive) in the assay on OVCAR-4; > 100 µM (inactive) in the assay on SF-295; > 100 µM (inactive) in the assay with MDA-MB-435. The GI50 is > 100 µM (inactive) in the assay with COLO 205; 74 µM (inactive) with NCI-H522; 58.7 µM (inactive) with MDA-MB-231; > 100 µM (inactive) in the assay on NCI-H23; 31.6 µM (inactive) in the assay on HCT-116; 34.8 µM in the assay on HCT-15. Moreover, the GI50 in the assay with UACC-257 is > 100 µM (inactive); in the assay with CCRF-CEM, 29 µM (inactive); in the assay on Hs-578T, 31.6 µM (inactive); in the assay with HOP-92 it was > 100 µM (inactive); in the assay with UO-31, 38.6 µM (inactive); with T47D it was 63.4 µM (inactive). Further, the GI50 in the assay with IGROV-1 was > 100 µM (inactive).

As to `C=CCn1c(N)c(C#N)c(C#N)c1CCC`, the GI50 in the assay with SN12C, with Malme-3M, in the assay on OVCAR-4, with SF-295, in the assay on MDA-MB-435 and in the assay with COLO 205 was > 100 µM (inactive) in each case. The GI50 with NCI-H522 was > 100 µM (inactive); with MDA-MB-231, > 100 µM (inactive); in the assay with NCI-H23 it was > 100 µM (inactive); in the assay on HCT-15 it was greater than 100 µM; in the assay with UACC-257, > 100 µM (inactive); in the assay on CCRF-CEM, > 100 µM (inactive). In addition, the GI50 in the assay with Hs-578T, in the assay with HOP-92, with UO-31, with T47D and in the assay with IGROV-1 was > 100 µM (inactive) each time.

Take `CC1C2CC(CC2(C)O)C1(C)C` (stereo not drawn): the GI50 in the assay with SN12C is > 100 µM (inactive); in the assay on Malme-3M, > 100 µM (inactive); in the assay with NCI-H460 it was > 100 µM (inactive); with OVCAR-4, > 100 µM (inactive); in the assay with SF-295, > 100 µM (inactive); in the assay on MDA-MB-435, > 10 µM (inactive). Further, the GI50 in the assay on COLO 205, in the assay with NCI-H522, in the assay with MDA-MB-231, in the assay on NCI-H23, in the assay with HCT-116 and in the assay with UACC-257 was > 100 µM (inactive) in each case. Besides, the GI50 with CCRF-CEM, in the assay on Hs-578T, in the assay on HOP-92, with UO-31, in the assay with T47D and with IGROV-1 was > 100 µM (inactive) in each case.
